US10947188B2, “Small molecule ferroptosis inducers” (THE TRUSTEES OF COLUMBIA UNIVERSITY IN THE CITY OF NEW YORK, priority 2016, dated 2021)

Experiments:
GPX4 = assay: Western blotting of GPX4 protein abundance; type: cell-based, human; settings: for effect on FIN56-induced decrease of GPX4 protein abundance: 5 μM FIN56
Method: Seeded 300,000 cells (HT-1080 or BJeLR) per well in six-well plates. For cotreatment, ferroptosis inducers (10 μM erastin for 11 h, 0.5 μM (1S, 3R)-RSL3 for 2 h, or 5 μM FIN56) and 100 μM α-tocopherol were added to cell culture at the same time, and cells were then incubated for 10 h (FIG. 2E). When other death-modulating compounds (100 nM sodium selenite, 1 μM cerivastatin, 100 μg/mL mevalonic acid, 30 μM C75, or 2 μM cerulenin) were used in cotreatments, cells were pre-incubated with the modulators for 24 h before being treated with ferroptosis inducers for 6 h. Cell lysis, SDS-PAGE and protein transfer to PVDF membrane were performed as previously described (Dixon et al. 2012). We used the following antibodies: anti-human α-tubulin (Santa Cruz Biotechnology, sc-32293, 1:10,000 dilution), anti-human GPX4 (Abcam, ab41787, 1:2,000 dilution), anti-human GPX1 (R&D Systems, AF3798, 1:1,000 dilution), and anti-human SQS (Abcam, ab109723 for full-length, ab195046 for truncated, both at 1:1,000 dilution). Secondary antibodies were from LI-COR (1:3,000 dilution). The PVDF membranes labeled with primary and secondary antibodies were scanned using an Odyssey Imaging System (LI-COR). Experiments were performed in biological triplicates, and the mean±s.e. of intensity was plotted.

HT-1080 = assay: Modulatory profiling: Alamar Blue viability, lethal compound cotreated with death modulator (EC50, AUC); type: cell-based; parameters: AUC, modulator HT.3MA / AUC, modulator HT.ALLN / AUC HT.ATA / AUC HT.ActD / AUC HT.BHA / AUC HT.BHT / AUC HT.BocD / AUC HT.CHX / AUC HT.Co2+ / AUC HT.DPQ / AUC HT.EGTA / AUC HT.Lmim / AUC HT.NAD+ / AUC HT.Nec-1 / AUC HT.SP600125 / AUC HT.TLCK / AUC HT.U0126: unit not given beside the values
BJeLR = assay: as above; type: cell-based, human; parameters: AUC, modulator BJ.Gd3+ / AUC, modulator BJ.LNAME / AUC, modulator BJ.Lmin / AUC, modulator BJ.3MA / AUC, modulator BJ.ALLN / AUC, modulator BJ.Boc D / AUC, modulator BJ.CHX / AUC, modulator BJ.Co2+ / AUC, modulator BJ.Nec-1 / AUC, modulator BJ.Pepstatin / AUC, modulator BJ.TLCK / AUC, modulator BJ.atoc / AUC, modulator BJ.trolox / AUC, modulator BJ.zVAD: unit not given beside the values; settings: BJeLR cells, modulatory profile value (AUC)
HT-1080 cells [1] = assay: Analysis of lipid ROS generation (C11-BODIPY 581/591 flow cytometry); type: cell-based
Method: Cells were treated with test compounds, trypsinized, pelleted, and washed once with PBS. For lipophilic or aqueous ROS detection, cells were re-suspended in Hanks' Balanced Salt Solution (HBSS; […] Cells were then pelleted, re-suspended in 500 μL HBSS, strained through a 40-μm cell strainer (BD Falcon), and analyzed using a BD Accuri C6 flow cytometer (BD Biosciences). Both dyes were measured in the FL1 channel. Experiments were done in biological triplicates.

HT-1080 cells [2] = assay: Cell viability assay (Alamar Blue), lethal compounds with or without modulators; type: cell-based
Method: 1,000 cells per 36 μl were seeded in each well in 384-well plates. Lethal compounds were dissolved, and a twofold, 12-point dilution series was prepared in DMSO. Compound solutions were further diluted with media at 1:25, and 4 μl per well of the diluted solutions was added to cell cultures immediately after cells were seeded. […] When other cell-death-modulating compounds (100 nM sodium selenite, 1 μM cerivastatin, 100 μg/mL mevalonic acid) were used in cotreatments, they were supplemented to cell culture for 24 h before lethal compounds were added to cell culture, after which cells were further incubated for 24 h at 37° C. under 5% CO2. On the day of the viability measurement, we added 10 μl per well of 50% Alamar Blue diluted in media (Life Technologies) and further incubated the cells at 37° C. for 6 h. Fluorescence intensity (excitation/emission: 530/590) was measured with a Victor 3 plate reader (PerkinElmer), and the normalized viability was calculated as VL=(IL−I0)/(IV−I0), where VL, I0, IV, and IL are the normalized viability and the raw fluorescence intensities from the wells containing media, cells treated with a vehicle (negative control), and cells with the lethal compound (L), respectively. When the effect of a chemical modulator (M) on L was calculated, we instead used the equation VL|M=(IM,L−I0)/(IM,V−I0), where VL|M, IM,L and IM,V are the normalized viability, and fluorescence intensity from cells treated with […], respectively. The viability was typically measured in biological triplicate unless otherwise specified. A representative dose-response curve, the mean and standard error of normalized viability from one replicate were plotted. […]

C[C@@H]1C[C@@H]([C@H](O)CC2CC(=O)NC(=O)C2)C(=O)[C@@H](C)C1 [cycloheximide, Cycloheximide, reference compound]
amount of GPX4 protein compared to α-tubulin after translation inhibition (GPX4): did not show substantially decreased amounts of GPX4 protein
AUC HT.ATA (HT-1080; HT-1080, modulator ATA): −0.01057
AUC HT.ActD (HT-1080; HT-1080, modulator ActD): 0.06057
AUC HT.BHA (HT-1080; HT-1080, modulator BHA): 0.06705
AUC HT.BHT (HT-1080; HT-1080, modulator BHT): −0.03297
AUC HT.BocD (HT-1080; HT-1080, modulator BocD): 0.0413
AUC HT.CHX (HT-1080; HT-1080, modulator CHX): 0.1462
AUC HT.Co2+ (HT-1080; HT-1080, modulator Co2+): 0.09948
AUC HT.CspA (HT-1080; HT-1080, modulator CspA): 0.04639
AUC HT.DPQ (HT-1080; HT-1080, modulator DPQ): 0.01425
AUC HT.EGTA (HT-1080; HT-1080, modulator EGTA): 0.01386
AUC HT.Gd3+ (HT-1080; HT-1080, modulator Gd3+): 0.002991
AUC HT.LNAME (HT-1080; HT-1080, modulator LNAME): 0.02188
AUC HT.Lmim (HT-1080; HT-1080, modulator Lmim): 0.1089
AUC HT.NAD+ (HT-1080; HT-1080, modulator NAD+): 0.07007
AUC HT.NMMA (HT-1080; HT-1080, modulator NMMA): 0.01986
AUC HT.Nec-1 (HT-1080; HT-1080, modulator Nec-1): 0.03736
AUC HT.Pepstatin (HT-1080; HT-1080, modulator Pepstatin): 0.006163
AUC HT.SP600125 (HT-1080; HT-1080, modulator SP600125): −0.003327
AUC HT.TLCK (HT-1080; HT-1080, modulator TLCK): 0.01836
AUC HT.U0126 (HT-1080; HT-1080, modulator U0126): 0.03848
HT.atoc (AUC) (HT-1080; HT-1080, modulator atoc): 0.01667
HT.bCarotene (AUC) (HT-1080; HT-1080, modulator bCarotene): 0.008758
HT.deferox (AUC) (HT-1080; HT-1080, modulator deferox): 0.2041
HT.digoxin (AUC) (HT-1080; HT-1080, modulator digoxin): 0.0457
HT.trolox (AUC) (HT-1080; HT-1080, modulator trolox): 0.02127
HT.zVAD (AUC) (HT-1080; HT-1080, modulator zVAD): 0.0358
AUC, modulator HT.3MA (HT-1080; HT-1080 cells, lethal compound cotreated with modulator 3MA, modulatory profile value (AUC)): 0.005512
AUC, modulator HT.ALLN (HT-1080; HT-1080 cells, lethal compound cotreated with modulator ALLN, modulatory profile value (AUC)): 0.3818
AUC, modulator BJ.3MA (BJeLR; lethal compound cotreated with modulator 3MA): 0.03847
AUC, modulator BJ.ALLN (BJeLR; lethal compound cotreated with modulator ALLN): 0.09461
AUC, modulator BJ.Boc D (BJeLR; lethal compound cotreated with modulator Boc D): 0.02242
AUC, modulator BJ.CHX (BJeLR; lethal compound cotreated with modulator CHX): 0.3613
AUC, modulator BJ.Co2+ (BJeLR; lethal compound cotreated with modulator Co2+): 0.2375
AUC, modulator BJ.DPQ (BJeLR; lethal compound cotreated with modulator DPQ): 0.02122
AUC, modulator BJ.Gd3+ (BJeLR; lethal compound cotreated with modulator Gd3+): 0.02359
AUC, modulator BJ.LNAME (BJeLR; lethal compound cotreated with modulator LNAME): 0.007696
AUC, modulator BJ.Lmin/NAD+ (BJeLR; lethal compound cotreated with modulator Lmin/NAD+): 0.1057
AUC, modulator BJ.Lmin (BJeLR; lethal compound cotreated with modulator Lmin): 0.0775
AUC, modulator BJ.NAD+ (BJeLR; lethal compound cotreated with modulator NAD+): 0.08265
AUC, modulator BJ.NMMA (BJeLR; lethal compound cotreated with modulator NMMA): 0.002535
AUC, modulator BJ.Nec-1 (BJeLR; lethal compound cotreated with modulator Nec-1): 0.03326
AUC, modulator BJ.Pepstatin (BJeLR; lethal compound cotreated with modulator Pepstatin): 0.01475
AUC, modulator BJ.TLCK (BJeLR; lethal compound cotreated with modulator TLCK): 0.03153
AUC, modulator BJ.atoc (BJeLR; lethal compound cotreated with modulator atoc): 0.0001672
AUC, modulator BJ.trolox (BJeLR; lethal compound cotreated with modulator trolox): 0.01856
AUC, modulator BJ.zVAD (BJeLR; lethal compound cotreated with modulator zVAD): 0.02186

COC1=C(OC)C(=O)C(CCCCCCCCCCO)=C(C)C1=O [idebenone]
effect on FIN56-induced decrease of GPX4 protein abundance (GPX4): did not block the decrease in GPX4 protein abundance
effect on lipid ROS generation after FIN56 treatment (HT-1080 cells [1]): inhibited lipid ROS generation after FIN56 treatment
effect on staurosporine-induced cell death (HT-1080 cells [2]): enhanced it
effect on FIN56 lethality (HT-1080 cells [2]; HT-1080 cells, modulator cotreatment or pretreatment): the only suppressor of FIN56-induced ferroptosis

Cc1c(C)c2c(c(C)c1O)CC[C@@](C)(CCC[C@H](C)CCC[C@H](C)CCCC(C)C)O2 [α-tocopherol]
effect on FIN56-induced decrease of GPX4 protein abundance (GPX4): not inhibited
effect on lipid ROS generation after FIN56 treatment (HT-1080 cells [1]): inhibited lipid ROS generation after FIN56 treatment
effect on staurosporine-induced cell death (HT-1080 cells [2]): suppressed staurosporine-induced cell death
